Reference: US20260215423A1, “NOVEL CARBOXAMIDE AND SULFONAMIDE PESTICIDAL COMPOUNDS” (SYNGENTA CROP PROTECTION AG, priority 2023, published 2026)

Legend:
Assay type in all cases: in vivo
[1] = system: Myzus persicae (Green Peach Aphid); assay: Myzus persicae (Green Peach Aphid). Intrinsic Activity; conditions: 120 h, test rate of 12 ppm, mixed with sucrose solution, feeding through Parafilm, 5 days after infestation
Description: Example B7: Myzus persicae (Green Peach Aphid). Intrinsic Activity
Test compounds prepared from 10′000 ppm DMSO stock solutions were applied by pipette into 24-well microtiter plates and mixed with sucrose solution. The plates were closed with a stretched Parafilm. A plastic stencil with 24 holes was placed onto the plate and infested pea seedlings were placed directly on the Parafilm. The infested plate was closed with a gel blotting paper and another plastic stencil and then turned upside down. The samples were assessed for mortality 5 days after infestation.

[2] = system: Plutella xylostella (Diamond back moth); assay: Plutella xylostella (Diamond back moth); conditions: 192 h, application rate of 200 ppm, artificial diet treated by pipetting, Plutella eggs, 8 days after infestation, read-out: effect in at least one of the two categories (mortality or growth inhibition)
Description: After drying, Plutella eggs were pipetted through a plastic stencil onto a gel blotting paper and the plate was closed with it. The samples were assessed for mortality and growth inhibition in comparison to untreated samples 8 days after infestation.

[3] = system: Diabrotica balteata (Corn root worm); assay: Diabrotica balteata (Corn root worm); conditions: 96 h, application rate of 200 ppm, maize sprouts sprayed, L2 larvae, 4 days after infestation, read-out: effect in at least one of the two categories (mortality or growth inhibition)
Description: Example B2: Diabrotica balteata (Corn root worm)
Maize sprouts placed onto an agar layer in 24-well microtiter plates were treated with aqueous test solutions prepared from 10′000 ppm DMSO stock solutions by spraying. After drying, the plates were infested with L2 larvae (6 to 10 per well). The samples were assessed for mortality and growth inhibition in comparison to untreated samples 4 days after infestation.

[4] = system: Myzus persicae (Green Peach Aphid); assay: Myzus persicae (Green Peach Aphid) Feeding/Contact Activity, eggplant leaf discs; conditions: foliar, 144 h, application rate of 200 ppm, eggplant leaf discs sprayed, aphid population of mixed ages, 6 days after infestation, read-out: growth inhibition
Description: Example B8: Myzus persicae (Green Peach Aphid) Feeding/Contact Activity Eggplant leaf discs were placed onto agar in a 24-well microtiter plate and sprayed with aqueous test solutions prepared from 10′000 ppm DMSO stock solutions. After drying, the leaf discs were infested with an aphid population of mixed ages. […]

C[C@@H](COc1ccc(Cl)c(CNC(=O)C2CSC2)c1)NS(=O)(=O)C(F)(F)F [P-6] showed a mortality at 12 ppm [1] of no less than 80%.

For C[C@@H](COc1ccc(Cl)c(CNC(=O)C2CCC2)c1)NS(=O)(=O)C(F)(F)F [P-7], the percent effect (mortality or growth inhibition) at 200 ppm [2] was no less than 80% and the mortality at 12 ppm [1] was no less than 80%.

In the case of C[C@@H](COc1ccc(Cl)c(CNC(=O)C2CCC2)c1)N(C(=O)C1CCC1)S(=O)(=O)C(F)(F)F [P-8], the percent effect (mortality or growth inhibition) at 200 ppm [2] is reported as no less than 80% and the mortality at 12 ppm [1] is reported as no less than 80%.

Work on C[C@@H](COc1cnc(Cl)c(CNC(=O)C2CC2)c1)NS(=O)(=O)C(F)(F)F [P-9, N-[[2-chloro-5-[(2S)-2-(trifluoromethylsulfon-ylamino)propoxy]-3-pyridyl]methyl]cyclo-propanecarboxamide] yielded a percent effect (mortality or growth inhibition) at 200 ppm [2] of no less than 80% and a mortality at 12 ppm [1] of no less than 80%.

CCC(=O)NCc1cc(OC[C@H](C)NS(=O)(=O)C(Cl)Cl)ccc1Cl [P-10] was tested, and the mortality at 12 ppm [1] was no less than 80%.

CCC(=O)NCc1cc(OC[C@H](C)NS(=O)(=O)C(F)F)ccc1Cl [P-11] was tested, and the percent effect (mortality or growth inhibition) at 200 ppm [2] was no less than 80% and the mortality at 12 ppm [1] was no less than 80%.

CCC(=O)NCc1cc(OC[C@H](C)NS(=O)(=O)c2ccc(C#N)c(Cl)c2)ccc1Cl [P-12, N-[[2-chloro-5-[(2S)-2-[(3-chloro-4-cyano-phenyl)sulfonylamino]propoxy]phenyl]meth-yl]propanamide] was tested, and the percent effect (mortality or growth inhibition) at 200 ppm [3] was no less than 80%.

CCC(=O)NCc1cc(OC[C@H](C)NS(=O)(=O)c2cnc(Cl)c(Cl)c2)ccc1Cl [P-13, N-[[2-chloro-5-[(2S)-2-[(5,6-dichloro-3-pyridyl)sulfonylamino]propoxy]phenyl]meth-yl]propanamide] was tested, and the percent effect (mortality or growth inhibition) at 200 ppm [2] was no less than 80% and the percent effect (mortality or growth inhibition) at 200 ppm [3] was no less than 80%.

Work on CCC(=O)NC1(c2cc(OC[C@H](C)NS(=O)(=O)C(F)(F)F)ccc2Cl)CC1 [P-14, N-[1-[2-chloro-5-[(2S)-2-(trifluoromethylsul-fonylamino)propoxy]phenyl]cyclopropyl] propanamide] yielded a percent effect (mortality or growth inhibition) at 200 ppm [3] of no less than 80%.

Work on COCC(=O)NCc1cc(OC[C@H](C)N(C(=O)COC)S(=O)(=O)C(F)(F)F)ccc1Cl [P-16, N-[[2-chloro-5-[(2S)-2-[(2-methoxyacetyl)-(trifluoromethylsulfon-yl)amino]propoxy]phenyl]methyl]-2-methoxy-acetamide] yielded an inhibition at 200 ppm [4] of no less than 80% and a mortality at 12 ppm [1] of no less than 80%.

C[C@@H](COc1cnc(Cl)c(CNC(=O)CC2CC2)c1)NS(=O)(=O)C(F)(F)F [P-21, N-[[2-chloro-5-[(2S)-2-(trifluoromethylsul-fonylamino)propoxy]-3-pyridyl]methyl]-2-cyclopropyl-acetamide] gave an inhibition at 200 ppm [4] of no less than 80% and a mortality at 12 ppm [1] of no less than 80%.

In the case of C[C@@H](COc1cnc(Cl)c(CNC(=O)C2(C#N)CC2)c1)NS(=O)(=O)C(F)(F)F [P-23, N-[[2-chloro-5-[(2S)-2-(trifluoromethylsul-fonylamino)propoxy]-3-pyridyl]methyl]-1-cyano-cyclopropane-carboxamide], the inhibition at 200 ppm [4] is reported as no less than 80%.

C[C@@H](COc1cnc(Cl)c(CNC(=O)C2CCCO2)c1)NS(=O)(=O)C(F)(F)F (some centres unmarked) [P-27] was tested, and the inhibition at 200 ppm [4] was no less than 80%.

In the case of C[C@@H](COc1cnc(Cl)c(CNC(=O)C(F)(Cl)Cl)c1)NS(=O)(=O)C(F)(F)F [P-29, 2,2-dichloro-N-[[2-chloro-5-[(2S)-2-(trifluoromethylsul-fonylamino)propoxy]-3-pyridyl]methyl]-2-fluoro-acetamide], the inhibition at 200 ppm [4] is reported as no less than 80%.

With C[C@@H](COc1cnc(Cl)c(CNC(=O)CC2CC2(Cl)Cl)c1)NS(=O)(=O)C(F)(F)F (some centres unmarked) [P-30] the inhibition at 200 ppm [4] was no less than 80%.

C[C@@H](COc1cnc(Cl)c(CNC(=O)C(F)F)c1)NS(=O)(=O)C(F)(F)F [P-32, N-[[2-chloro-5-[(2S)-2-(trifluoromethylsul-fonylamino)propoxy]-3-pyridyl]methyl]-2,2-difluoro-acetamide] gave a mortality at 12 ppm [1] of no less than 80%.
